Laboratory results reported in PMC11943115, “GSTD1 Mediates the Tolerance to Abamectin and Beta-Cypermethrin in the Fall Armyworm Spodoptera frugiperda” (Insects, 2025).

Molecular target: T1, SfGSTD1 (Spodoptera frugiperda, UniProt A0A9R0F5L2)
T1 construct: gene LOC118269876; not XP_035440580.2, another SfGSTD1 of the literature that clusters with SeGSTD3
T1 sequence (A0A9R0F5L2 1-244): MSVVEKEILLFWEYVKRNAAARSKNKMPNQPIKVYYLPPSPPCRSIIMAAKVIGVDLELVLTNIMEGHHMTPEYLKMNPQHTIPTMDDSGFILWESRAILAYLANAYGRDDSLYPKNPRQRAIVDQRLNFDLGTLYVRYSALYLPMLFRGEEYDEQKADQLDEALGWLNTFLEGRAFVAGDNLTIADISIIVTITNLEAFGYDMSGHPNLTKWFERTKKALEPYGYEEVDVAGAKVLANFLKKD
Assay: GSH conjugation, absorbance […] nm
Type: biochemical
Conditions: 4 mM GSH; CDNB 0.125 to 4 mM

## O=[N+]([O-])c1ccc(Cl)c([N+](=O)[O-])c1 [CDNB]
  Km: 421 ± 109 µM
